# Marks after values point to notes of the source that are not given here.
# Columns and labels:
# Format in all cases: in vivo
# corn [1] = assay: Greenhouse subsurface drip irrigation trial, deficit irrigated, Examples 4-8; conditions: for % Yield Increase by Product over Untr./50% Irr. / Yield: SDI chemigated at V3/V4, 50% irrigated deficit, Azoxystrobin 261, PPZ 126, TXP 250, PBZ 12.5, TMX 70 gai/ha; for Yield compared with the control, in words: water stress regime (50% irrigated), SDI
# Description: A greenhouse subsurface drip irrigation trial was conducted on corn to evaluate treatment effects on yield in fully irrigated vs. deficit irrigated conditions. In this experiment, standardized growth conditions were applied across all corn treatments including: soil-water availability, soil texture and composition, soil chemical and physical properties, meteorological and environmental parameters, and plant nutrition in a greenhouse. No indication of plant disease or pest damage was observed over the course of the study and no pest management program was necessary. A homogeneous sand-organic matter soil mixture (0.18% organic matter) was used as the growth medium in 55-gal containers. These containers were used as a weighing lysimeter, where daily changes in system weight were used to calculate plant transpiration. Four corn plants were grown in each 55-gal container. Three 55-gal containers (12 plants total) made up each treatment. All irrigation and chemical treatments were applied via sub-surface irrigation. Chemical treatments consisted of: azoxystrobin (Quadris), paclobutrazol (Trimmit), trinexapac-ethyl (Moddus), and propiconazole (Tilt) at maximum labeled rates.
# Corn plants were grown from seed and transplanted in the 55-gal drums approximately 14 days after planting. Uniform adequate irrigation was applied up to growth stage V3/V4 to ensure plant establishment. Chemical treatment applications were applied at growth stage V3/V4 via sub-surface chemigation. At stage V3/V4, irrigation was decreased to replicate deficit water conditions across all treatments for the remainder of the study period. Irrigation was managed daily to maintain 50% plant-available water. Visual signs of abiotic plant stress were observed approximately 30 days after chemical application. All corn plants were grown to yield and cobs were harvested when kernels were uniformly dry (15% moisture content). Root architecture, specifically relative number of fine roots, was measured at within 2 weeks of harvest using a digital imaging technique. Fine roots are related to water uptake productivity, which is directly tied to the ability of the plant to access soil-water under stress.
# corn [2] = assay: Sprinkler irrigation management field test, full vs deficit irrigation, Examples 9-10; conditions: 261 gai/ha, 60% irrigated deficit
# Description: A completely random test design (split plot) was conducted using Sprinkler Irrigation. This was an irrigation management test to study treatment effects on yield under full irrigation and deficit irrigation conditions. The field study was set up with four replications and tested on silt loam soil. Overhead sprinkler irrigation and overhead sprinkler chemigation was used in this study. Each plot was 4 rows wide (3 meters) by 9.1 meters long. Soil water status was monitored throughout the growing season using soil moisture sensors. Corn seed was planted with a precision planter at a depth of 2 inches and rows spaced at 30 inches. The planting population was 30,000 seeds per acre. Testing parameters, irrigation levels, and harvesting were conducted according to the University of Nebraska experimental procedure (see, e.g.,: Irmak, S, D. Z. Haman, and R. Bastug. Determination of Crop Water Stress Index for irrigation Timing and Yield Estimation of Corn. 2000. Agronomy Journal. 92:1221-1227). Moisture levels, irrigation levels, and plant health were measured throughout the growing season. Climatic variables were measured (air temperature, rainfall, solar and net radiation, relative humidity, rainfall, wind speed and direction) throughout the season. Irrigation for the fully irrigated treatments was scheduled according crop need based on soil water measurements. The deficit irrigation treatments were scheduled at approximately 60% of the fully irrigated plots (1.2 inches/acre vs. 2 inches of water/acre, respectively). Volumetric soil water content was measured on a weekly basis throughout the crop season to determine total water use. Maintenance crop protection products were applied as needed to manage weeds & pests throughout the season for all treatments including the control. Azoxystrobin (Quadris) was applied via overhead sprinkler irrigation at 261 grams active ingredient/hectare or by foliar application (tractor mounted sprayer) at 261 grams active ingredient/hectare at approximately V6 & R1 stages of the corn. Crop yield from each replication was recorded after harvest and adjusted to 15% moisture content.
# corn [3] = assay: SDI chemigation field study under dryland/rainfed conditions, Examples 15-16; conditions: 261 gai/ha, 0% irrigated rainfed/dryland
# corn [4] = assay: Lateral-move sprinkler irrigation field study, 113 day maturity corn hybrid, Examples 11-12; conditions: 261 gai/ha, 60% irrigated deficit
# soybean [5] = assay: Sprinkler irrigation field study on soybean yield and WUE, Table 14 (treatments 31-32)
# soybean [6] = assay: Lateral-move sprinkler irrigation field study on soybean, Examples 29-30; conditions: for % IWUE Increase over Untreated / % Seed Mass Increase over Untreated / % Yield Increase over Untreated / IWUE (water productivity) / Seed Mass / Yield: foliar 150 gai/ha, average of 60% & 100% irrigated
# corn [7] = assay: SDI split plot field study, 115 day maturity corn hybrid, deficit vs fully irrigated, Example 3; conditions: 261 gai/ha, 50% irrigated deficit
# corn [8] = assay: Subsurface drip irrigation (SDI) chemigation field study, limited (deficit) vs fully irrigated, Examples 1-2; conditions: 261 gai/ha, 50% irrigated deficit
# [9] = Azoxy 150 gai/ha foliar, 2 applications, alone or + Acibenzolar-S-methyl 10 gai/ha, 60% irrigated deficit
compound,measurement,setting,value
"CCOC(=O)C1CC(=O)C(=C(O)C2CC2)C(=O)C1 (centres unmarked) [TXP, trinexapac-ethyl]",% Yield Increase by Product over Untr./50% Irr.,corn [1],+15.6% Incr. over Untr./50% Irr.
same,Yield,corn [1],2133† Kg/Ha
same,"Yield compared with the control, in words",corn [1],statistically higher than the control
"CO/C=C(/C(=O)OC)c1ccccc1Oc1cc(Oc2ccccc2C#N)ncn1 [Azoxystrobin, azoxystrobin]",Yield,corn [2]; foliar-applied (V6 & R1),196 Bu./acre
same,Azoxystrobin % Yield Increase over 60% Untr.,corn [2]; foliar-applied,+3% Incr.
same,Azoxystrobin % Yield Increase over 100% Untr.,corn [2]; foliar-applied,+4% Incr.
same,Yield,corn [2]; sprinkler chemigated (V6 & R1),197 Bu./acre
same,Azoxystrobin % Yield Increase over 60% Untr.,corn [2]; sprinkler chemigated,+4% Incr.
same,Azoxystrobin % Yield Increase over 100% Untr.,corn [2]; sprinkler chemigated,+5% Incr.
same,Yield,corn [3]; SDI chemigated (V6 & R1),166.2 Bu./acre
same,Azoxystrobin % CWUE Increase over Untr./0% irr.,corn [3]; SDI chemigated,+142% incr over
same,Azoxystrobin % Yield Increase over Untr./0% irr.,corn [3]; SDI chemigated,+9.6% incr over
same,CWUE (crop water use efficiency),corn [3]; SDI chemigated,1.125 Bu./inch
same,Yield,corn [3]; foliar applied (V6 & R1),161.8 Bu./acre
same,Azoxystrobin % CWUE Increase over Untr./0% irr.,corn [3]; foliar applied,+108% incr over
same,Azoxystrobin % Yield Increase over Untr./0% irr.,corn [3]; foliar applied,+6.7% incr over
same,CWUE (crop water use efficiency),corn [3]; foliar applied,0.965 Bu./inch
same,Azoxystrobin % IWUE Increase over Untr./60% irr.,corn [4]; chemigated,+11% over
same,Azoxystrobin % Yield Increase over Untr./60% irr.,corn [4]; chemigated,+5% over
same,IWUE (water productivity),corn [4]; chemigated,515 lbs/acre inch
same,Yield,corn [4]; foliar applied (V6 & R1),239 Bu./acre
same,Azoxystrobin % IWUE Increase over Untr./60% irr.,corn [4]; foliar applied,+16% over
same,Azoxystrobin % Yield Increase over Untr./60% irr.,corn [4]; foliar applied,+7% over
same,IWUE (water productivity),corn [4]; foliar applied,540 lbs/acre inch
same,Yield,corn [4]; sprinkler chemigated (V6 & R1),236 Bu./acre
same,% WUE Increase over the 100% irrigated Control,soybean [5]; [9],11% Increase
same,Treatment % Yield Increase over 60% Untreated,soybean [5]; [9],+6% Incr.
same,Treatment % Yield Increase over 100% Untreated,soybean [5]; [9],+11% Incr.
same,WUE (water productivity),soybean [5]; [9],4.1 bushels/acre-inch
same,Yield,soybean [5]; [9],72 Bu./acre
same,"Yield compared with the untreated, in words",soybean [5]; Azoxystrobin: foliar (2 applications) at 60% & 100% irrigated,significant differences in yield
same,"WUE differences, in words",soybean [5]; water deficit regime,Good WUE differences
same,"Seed mass, statistical statement",soybean [6]; all Quadris treatments,Statistically significant difference in seed mass
same,% IWUE Increase over Untreated,soybean [6]; one application,+2% over
same,% Seed Mass Increase over Untreated,soybean [6]; one application,+3% over
same,% Yield Increase over Untreated,soybean [6]; one application,+2% over
same,IWUE (water productivity),soybean [6]; one application,129 lbs/acre-inch
same,Seed Mass,soybean [6]; one application,148a mg
same,Yield,soybean [6]; one application,48.4 Bu./acre
same,"Water productivity, in words","soybean [6]; soybean, sprinkler irrigation",increase in water productivity
same,% IWUE Increase over Untreated,soybean [6]; two applications,+6% over
same,% Seed Mass Increase over Untreated,soybean [6]; two applications,+6% over
same,% Yield Increase over Untreated,soybean [6]; two applications,+5% over
same,IWUE (water productivity),soybean [6]; two applications,133 lbs/acre-inch
same,Seed Mass,soybean [6]; two applications,151a mg
same,Yield,soybean [6]; two applications,49.7 Bu./acre
same,Yield,corn [7]; foliar twice (V8 & V8+14da.),250 Bu./acre
same,Azoxystrobin % IWUE Increase over Untr./50% Irr.,corn [7]; foliar,+3% incr. over
same,Azoxystrobin % IWUE Increase over Untr./100% Irr.,corn [7]; foliar,+7% incr. over
same,Azoxystrobin % Yield Increase over Untr./50% Irr.,corn [7]; foliar,+3% incr. over
same,Azoxystrobin % Yield Increase over Untr./100% Irr.,corn [7]; foliar,+0% incr. over
same,IWUE (water productivity),corn [7]; foliar,494 lbs./acre in.
same,Yield,corn [8]; SDI chemigated twice (V8 & V8+14da.),217 Bu./acre
same,Azoxystrobin % IWUE Increase over Untr./50% Irr.,corn [8]; SDI chemigated,+40% incr.
same,Azoxystrobin % IWUE Increase over Untr./100% irr.,corn [8]; SDI chemigated,+114% incr.
same,Azoxystrobin % Yield Increase over Untr./50% Irr.,corn [8]; SDI chemigated,+11% incr.
same,Azoxystrobin % Yield Increase over Untr./100% irr.,corn [8]; SDI chemigated,+2.4% incr.
same,IWUE (irrigation water use efficiency),corn [8]; SDI chemigated,22.9 Bu./inch
same,Azoxystrobin % IWUE Increase over Untr./100% irr.,"corn [8]; SDI chemigated, listed as Quadris",114%
same,Yield,corn [8]; foliar applied twice (V8 & V8+14da.),211 Bu./acre
same,Azoxystrobin % IWUE Increase over Untr./50% Irr.,corn [8]; foliar applied,+29% incr.
same,Azoxystrobin % IWUE Increase over Untr./100% irr.,corn [8]; foliar applied,+97% incr.
same,Azoxystrobin % Yield Increase over Untr./50% Irr.,corn [8]; foliar applied,+11% incr.
same,Azoxystrobin % Yield Increase over Untr./100% irr.,corn [8]; foliar applied,+0% incr. over
same,IWUE (irrigation water use efficiency),corn [8]; foliar applied,21.1 Bu./inch
same,% Yield Increase by Product over Untr./50% Irr.,corn [1],+12.5% Incr. over Untr./50% Irr.
same,Yield,corn [1],2077† Kg/Ha
same,"Yield compared with the control, in words",corn [1],statistically higher than the control

# Source: patent US20140096445A1, “METHOD OF CULTIVATION IN WATER DEFICIT CONDITIONS” (SYNGENTA PARTICIPATIONS AG, priority 2011, published 2014)
